Assay results as given in ChEMBL document CHEMBL5614378, “Novel compounds with dual inhibition activity against SARS-CoV-2 critical enzymes RdRp and human TMPRSS2” (Eur J Med Chem, 2024).
The source made the active and inactive calls. No cut-off for these calls is given here.

Assays:
[1] = Cytotoxicity against human Calu-3 cells; assay type: toxicity, cell-based
SARS-CoV-2 [2] = assay type: functional; details: Severe acute respiratory syndrome coronavirus 2, Calu-3, 96 h; dose 30 nM; time 4 day
SARS-CoV-2 [3] = assay type: functional; details: Severe acute respiratory syndrome coronavirus 2, Calu-3, 96 h; dose 15 nM; time 4 day
SARS-CoV-2 [4] = test: microbe, parasite or virus in culture; details: Severe acute respiratory syndrome coronavirus 2, NRC-03-nhCoV, Calu-3, 72 h
Description: Anti-SARS-CoV-2 activity against SARS-CoV-2 NRC-03-nhCoV infected in human Calu-3 cells expressing TMPRSS2 assessed as inhibition of viral replication incubated for 72 hrs by crystal violet staining based analysis

[5] = target: Replicase polyprotein 1ab (Severe acute respiratory syndrome coronavirus 2) (UniProt P0DTD1); test: Inhibition of SARS-CoV-2 recombinant RdRp at 50 ug/ml preincubated with enzyme for 15 mins followed by single stranded polyribonucleotide template and NTPs addition and measured after 2 hrs by fluorescence spectrometric analysis relative to control; details: dose 50.0 µg/ml, time 135.0 min
[6] = target: Replicase polyprotein 1ab (Severe acute respiratory syndrome coronavirus 2, UniProt P0DTD1); test: Inhibition of SARS-CoV-2 recombinant RdRp preincubated with enzyme for 15 mins followed by single stranded polyribonucleotide template and NTPs addition and measured after 2 hrs by fluorescence spectrometric analysis
SARS-CoV-2 [7] = assay type: functional, Vero E6; details: Severe acute respiratory syndrome coronavirus 2, Vero C1008, 72 h, time 3 day
SARS-CoV-2 [8] = assay type: functional; details: for inhibition at 10 µg/mL: Severe acute respiratory syndrome coronavirus 2, Vero C1008, 72 h, time 3 day
SARS-CoV-2 [9] = assay type: functional; details: for inhibition at 10 µg/mL: Severe acute respiratory syndrome coronavirus 2, Vero C1008, 96 h, time 4 day
in vitro = details: monkey, Vero E6 cells
Description: Selectivity index, ratio of CC50 for cytotoxicity against African green monkey Vero E6 cells to IC50 for anti-SARS-CoV-2 activity against SARS-CoV-2 NRC-03-nhCoV infected in African green monkey Vero E6 cells

SARS-CoV-2 [10] = test: microbe, parasite or virus in culture; details: Severe acute respiratory syndrome coronavirus 2, NRC-03-nhCoV, Vero C1008, 72 h
Description: Anti-SARS-CoV-2 activity against SARS-CoV-2 NRC-03-nhCoV infected in African green monkey Vero E6 cells assessed as inhibition of viral replication incubated for 72 hrs by crystal violet staining based analysis

SMILES	inhibition [5]	IC50 [6]	inhibition at 10 µg/mL (SARS-CoV-2 [7])	selectivity ratio (in vitro)	IC50 (SARS-CoV-2 [10])	also measured
CN(C)C(=O)COC(=O)Cc1ccc(OC(=O)c2ccc(NC(=N)N)cc2)cc1 [CAMOSTAT]						CC50 [1]: 230 nM; inhibition at 0.03 µM (SARS-CoV-2 [2]): 80%; inhibition at 0.015 µM (SARS-CoV-2 [3]): 70%; IC50 (SARS-CoV-2 [4]): 8.21 nM
N#C[C@@]1(c2ccc3c(NC(=O)c4ccc(Nc5ncccn5)cc4)ncnn23)O[C@H](CO)[C@@H](O)[C@H]1O	77%	32.4 nM	51.3%	2.64	19.7 nM	inhibition (SARS-CoV-2 [8]; Severe acute respiratory syndrome coronavirus 2, Vero E6, dose 10.0 µg/ml, time 3.0 day): inactive; inhibition (SARS-CoV-2 [9]; Severe acute respiratory syndrome coronavirus 2, Vero E6, dose 10.0 µg/ml, time 4.0 day): inactive
O=C(Nc1ccn(C2OC(CO)C(O)C2O)c(=O)n1)c1ccc(Nc2ncccn2)cc1 (stereo unspecified)				7.18	52 nM	
CC(C)(C)OC(=O)Nc1ccc(C(=O)Nc2ncnn3c([C@]4(C#N)O[C@H](CO)[C@@H](O)[C@H]4O)ccc23)cc1				6.65	42.2 nM	
N#C[C@@]1(c2ccc3c(NC(=O)c4ccc(NC(=N)N)cc4)ncnn23)O[C@H](CO)[C@@H](O)[C@H]1O	91.5%	6.1 nM	66%		3.9 nM	inhibition at 10 µg/mL (SARS-CoV-2 [8]): 51.4%; inhibition at 10 µg/mL (SARS-CoV-2 [9]): 44%
CCC(CC)COC(=O)[C@H](C)N[P@](=O)(OC[C@H]1O[C@@](C#N)(c2ccc3c(N)ncnn23)[C@H](O)[C@@H]1O)Oc1ccccc1 [REMDESIVIR]	73%			3.02	55.6 nM	
CC(C)c1cc(=O)oc2ccc(OC(=O)c3ccc(NC(=N)N)cc3)cc12	89%	4.42 nM	63.2%		5.7 nM	CC50 [1]: 450 nM; inhibition at 10 µg/mL (SARS-CoV-2 [8]): 90.5%; inhibition at 10 µg/mL (SARS-CoV-2 [9]): 65%; inhibition at 0.03 µM (SARS-CoV-2 [2]): 60%; inhibition at 0.015 µM (SARS-CoV-2 [3]): 45%; IC50 (SARS-CoV-2 [4]): 17.5 nM
N=C(N)Nc1ccc(C(=O)Nc2ncnc3[nH]cnc23)cc1				1	22.8 nM	
